In ChEMBL document CHEMBL1138190, “Synthesis and antibacterial activity of novel C12 vinyl ketolides” (J Med Chem, 2006):
≈ marks a conversion by molar mass, not a printed value. Calls of active or inactive are those of the source. The rule behind the calls is not given here.

Experiments:
[1] = test system: Staphylococcus aureus; assay: Antibacterial activity against Staphylococcus aureus 29213; type: functional
[2] = test system: Staphylococcus aureus; assay: Antibacterial activity against Staphylococcus aureus 33591; type: functional
[3] = test system: Staphylococcus epidermidis; assay: Antibacterial activity against Staphylococcus epidermidis 14990; type: functional
[4] = test system: Staphylococcus epidermidis; assay: Antibacterial activity against Staphylococcus epidermidis f50654; type: functional
[5] = test system: Enterococcus faecalis; assay: Antibacterial activity against Enterococcus faecalis 29212; type: functional
[6] = test system: Enterococcus faecalis; assay: Antibacterial activity against Enterococcus faecalis bc11148-2; type: functional
[7] = test system: Streptococcus pyogenes; assay: Antibacterial activity against Streptococcus pyogenes 8668; type: functional
[8] = test system: Streptococcus pneumoniae; assay: Antibacterial activity against Streptococcus pneumoniae 49619; type: functional
[9] = test system: Streptococcus pneumoniae; assay: Antibacterial activity against Streptococcus pneumoniae 297-749; type: functional
[10] = test system: Streptococcus pneumoniae; assay: Antibacterial activity against Streptococcus pneumoniae 280-962; type: functional
[11] = test system: Streptococcus pneumoniae; assay: Antibacterial activity against Streptococcus pneumoniae Erm 6849; type: functional
[12] = test system: Streptococcus pneumoniae; assay: Antibacterial activity against Streptococcus pneumoniae Mef 5654; type: functional
[13] = test system: Streptococcus pneumoniae; assay: Antibacterial activity against Streptococcus pneumoniae Mef S 3427; type: functional
[14] = test system: Haemophilus influenzae; assay: Antibacterial activity against Haemophilus influenzae 49247; type: functional
[15] = Plasma half life in Sprague-Dawley rat at 5 mg/kg, iv; type: ADME, organism-based; parameters: dose 5 mg/kg, route intravenous
[16] = Plasma half life in Sprague-Dawley rat at 15 mg/kg, po; type: ADME, organism-based; parameters: dose 15 mg/kg, route oral
[17] = Lung half life in Sprague-Dawley rat at 15 mg/kg, po; type: ADME, organism-based; parameters: dose 15 mg/kg, route oral
[18] = Oral bioavailability in Sprague-Dawley rat at 15 mg/kg, po; type: ADME, organism-based; conditions: in vivo
[19] = Oral bioavailability in Sprague-Dawley rat at 100 mg/kg, po; type: ADME, organism-based; conditions: in vivo
[20] = test system: Rattus norvegicus; assay: Efficacy against Streptococcus pneumoniae Erm in Sprague-Dawley rat lung infection model at 100 mg/kg; type: functional, organism-based; parameters: dose 100 mg/kg
[21] = test system: Rattus norvegicus; assay: Efficacy against Haemophilus influenzae in Sprague-Dawley rat lung infection model at 100 mg/kg; type: functional, organism-based; parameters: dose 100 mg/kg
[22] = test system: Rattus norvegicus; assay: Efficacy against Streptococcus pneumoniae Mef in Sprague-Dawley rat lung infection model at 50 mg/kg; type: functional, organism-based; parameters: dose 50 mg/kg
[23] = test system: Rattus norvegicus; assay: Plasma AUC in Sprague-Dawley rat at 5 mg/kg, iv; type: ADME, organism-based; parameters: dose 5 mg/kg, route intravenous; conditions: in vivo
[24] = Lung-to-plasma AUC ratio in Sprague-Dawley rat at 5 mg/kg, iv; type: ADME, organism-based; parameters: dose 5 mg/kg, route intravenous; conditions: lung and plasma
[25] = Volume of distribution in Sprague-Dawley rat at 5 mg/kg, iv and 15 mg/kg, po; type: ADME, organism-based; conditions: in vivo, read-out: Vdss
[26] = test system: Streptococcus pneumoniae; assay: Antibacterial activity against Streptococcus pneumoniae Mef 5649; type: functional
[27] = test system: Streptococcus pneumoniae; assay: Antibacterial activity against Streptococcus pneumoniae Mef S 3435; type: functional; conditions: Streptococcus pneumoniae; read-out: MIC
[28] = test system: Streptococcus pneumoniae; assay: Antibacterial activity against Streptococcus pneumoniae Mef 41; type: functional
[29] = test system: Streptococcus pneumoniae; assay: Antibacterial activity against Streptococcus pneumoniae Mef 953; type: functional
[30] = test system: Streptococcus pneumoniae; assay: Antibacterial activity against Streptococcus pneumoniae Mef 983; type: functional
[31] = test system: Streptococcus pneumoniae; assay: Antibacterial activity against Streptococcus pneumoniae Mef 1556; type: functional
[32] = test system: Streptococcus pneumoniae; assay: Antibacterial activity against Streptococcus pneumoniae Mef 1566; type: functional

With `C=C[C@]12OC(=O)N(CCCCn3cnc(-c4ccc(Cl)nc4)c3)[C@@H]1[C@@H](C)C(=O)[C@H](C)C[C@@](C)(OC)[C@H](O[C@@H]1O[C@H](C)C[C@H](N(C)C)[C@H]1O)[C@@H](C)C(=O)[C@@H](C)C(=O)O[C@@H]2CC` the MIC [1] was no more than 0.05 µg/mL, the MIC [2] was greater than 50 µg/mL and the MIC [3] was no more than 0.05 µg/mL. For the same compound, the MIC [4] was no more than 0.05 µg/mL, the MIC [5] was no more than 0.05 µg/mL and the MIC [6] was 0.1 µg/mL (≈ 0.116 µM). It also gave an MIC [7] of no more than 0.05 µg/mL, an MIC [8] of no more than 0.05 µg/mL and an MIC [9] of no more than 0.05 µg/mL. For the same compound, the MIC [10] was no more than 0.05 µg/mL, the MIC [11] was 0.05 µg/mL (≈ 0.0582 µM) and the MIC [12] was 0.1 µg/mL (≈ 0.116 µM). The MIC [13] was no more than 0.05 µg/mL, the MIC [14] was 3.13 µg/mL (≈ 3.65 µM) and the half-life [15] was 1.3 h. For the same compound, the half-life [16] was 1.7 h, the half-life [17] was 1.4 h and the bioavailability [18] was 26%. For the same compound, the bioavailability [19] was 91%, the Activity [20] was “Active” and the Activity [21] was “Active”. The Activity [22] was “Active”, the AUC [23] was 2300 ng·h/mL and the Kp [24] was 94. It also gave a Vd [25] of 12 L/kg, an MIC [26] of no more than 0.05 µg/mL and an MIC [27] of no more than 0.05 µg/mL. The MIC [28] was 0.1 µg/mL (≈ 0.116 µM), the MIC [29] was no more than 0.05 µg/mL and the MIC [30] was 0.1 µg/mL (≈ 0.116 µM). The MIC [31] was no more than 0.05 µg/mL and the MIC [32] was 0.1 µg/mL (≈ 0.116 µM).
